Source: patent US11655242B2, “Glucagon-like peptide1 receptor agonists” (Eli Lilly and Company, priority 2019, dated 2023)
Like-named read-outs stand apart in the source and are kept apart here.

Key:
[1] = biological target: PDE10A1 (Homo sapiens (Human), UniProt Q9Y233); assay: Phosphodiesterase 10 (PDE10) Enzyme Activity Assay; format: biochemical; conditions: read-out: IC50 (μM), n = 1, inhibition of PDE10A1; SPA, [3H]-cGMP substrate, maximal compound concentration 10 μM
Protocol: Phosphodiesterase 10 (PDE10) Enzyme Activity Assay
To generate phosphodiesterase 10A1 (PDE10A1) protein, a full-length PDE10A1 clone corresponding to GenBank ID AAD32595.1 is cloned into pFastBac1 (Invitrogen). The PDE10A1 protein with a C-terminal FLAG-tag is expressed by baculoviral infection of insect cells and purified using anti-FLAG M2-agarose (Sigma) and size exclusion chromatography on a Superdex 200 column (GE Healthcare) and stored at −80° C. in small aliquots (20 mM Tris-HCl, Ph 7.5, 150 mM NaCl, 10% Glycerol).
PDE10A1 enzyme activities are measured with a yittrium silicate based scintillation proximity assay (SPA) that detects radioactive nucleotide monophosphates but not cyclic monophosphates. The assay buffer is composed of 50 mM Tris-HCl pH 7.5, 8 mM MgCl2, 3.4 mM EDTA, and 0.1% BSA (Sigma). Assays are conducted in 384 well plates (3706, Corning) in a total volume of 50 μl: comprised of 24 μl PDE10A1 enzyme, 1 μl test compound and 25 μl of cyclic nucleotide. Test compounds are diluted in pure DMSO using ten-point concentration response curves with a 3-fold dilution factor and 1 μl is acoustically dispensed into assay plates using the Echo555 (LabCyte). 24 μl PDE10A1 protein is incubated with 1 μl compound for 30 min before the reaction is started by the addition of [8-^3H]-cGMP substrate (6.5 Ci/mmol, Perkin Elmer). Final concentration of components is […], 80 nM (3H-cGMP), and 2% DMSO in assay buffer. Maximal compound concentration in the reaction mixture is 10 μM. Reactions are incubated for 60 min at RT before quenching and the addition of […] SPA beads (RPNQ0150, Perkin Elmer). Bead bound radioactivity (product) is quantified 12 h later with a Microbeta counter (Perkin Elmer). Data is normalized to % inhibition and IC50 values are calculated using the 4 parameter logistic equation as described (Campbell R. M.; Dymshitz, J.; Eastwood, B. J.; et al. “Data Standardization for Results Management.” In: Sittampalam, G. S.; Grossman, A.; Brimacombe, K.; et al.; eds. Assay Guidance Manual. Bethesda (Md.): Eli Lilly & Company and the National Center for Advancing Translational Sciences; 2004.).

[2] = biological target: human GLP-1R (Homo sapiens (Human), UniProt P43220); assay: Human GLP-1 Receptor HEK293 Cell cAMP Assay; conditions: for EC50: EC50 (nM) ± SEM (n), intracellular cAMP response, relative EC50; for Emax: percent of maximal response with human GLP-1(7-36)NH2
human GLP-1R, sequence (P43220 24-463): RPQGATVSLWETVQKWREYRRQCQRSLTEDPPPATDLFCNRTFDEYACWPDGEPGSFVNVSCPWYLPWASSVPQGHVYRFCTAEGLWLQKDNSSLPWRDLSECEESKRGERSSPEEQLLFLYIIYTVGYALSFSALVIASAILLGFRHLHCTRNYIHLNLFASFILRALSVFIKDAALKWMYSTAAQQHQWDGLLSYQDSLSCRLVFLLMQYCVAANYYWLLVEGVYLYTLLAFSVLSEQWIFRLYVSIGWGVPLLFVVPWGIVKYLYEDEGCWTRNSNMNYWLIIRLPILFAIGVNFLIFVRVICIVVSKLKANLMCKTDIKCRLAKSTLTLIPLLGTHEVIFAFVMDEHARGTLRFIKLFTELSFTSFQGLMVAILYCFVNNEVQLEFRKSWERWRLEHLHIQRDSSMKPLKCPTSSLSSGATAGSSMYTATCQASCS
Protocol: After a 30 min incubation at 37° C., the resulting increase in intracellular cAMP is quantitatively determined using the CisBio cAMP Dynamic 2 HTRF Assay Kit (62AM4PEJ). Briefly, cAMP levels within the cell are detected by adding the cAMP-d2 conjugate in cell lysis buffer (10 μL) followed by the antibody anti-cAMP-Eu^3+-Cryptate, also in cell lysis buffer (10 μL). […] The amount of cAMP generated (nM) in each well is converted to a percent of the maximal response observed with human GLP-1(7-36)NH2. A relative EC50 value and percent top (Emax) are derived by non-linear regression analysis using the percent maximal response vs. the concentration of compound added, fitted to a four-parameter logistic equation.

[3] = biological target: hERG K+ channel (Homo sapiens (Human), UniProt Q12809); assay: Human hERG K+ Channel Affinity Radioligand Binding Assay; conditions: pH 7.4, probe [3H]dofetilide, 3 nM, read-out: Percent inhibition (%) at 100 μM compound concentration, n = 1
hERG K+ channel, sequence (Q12809 whole entry): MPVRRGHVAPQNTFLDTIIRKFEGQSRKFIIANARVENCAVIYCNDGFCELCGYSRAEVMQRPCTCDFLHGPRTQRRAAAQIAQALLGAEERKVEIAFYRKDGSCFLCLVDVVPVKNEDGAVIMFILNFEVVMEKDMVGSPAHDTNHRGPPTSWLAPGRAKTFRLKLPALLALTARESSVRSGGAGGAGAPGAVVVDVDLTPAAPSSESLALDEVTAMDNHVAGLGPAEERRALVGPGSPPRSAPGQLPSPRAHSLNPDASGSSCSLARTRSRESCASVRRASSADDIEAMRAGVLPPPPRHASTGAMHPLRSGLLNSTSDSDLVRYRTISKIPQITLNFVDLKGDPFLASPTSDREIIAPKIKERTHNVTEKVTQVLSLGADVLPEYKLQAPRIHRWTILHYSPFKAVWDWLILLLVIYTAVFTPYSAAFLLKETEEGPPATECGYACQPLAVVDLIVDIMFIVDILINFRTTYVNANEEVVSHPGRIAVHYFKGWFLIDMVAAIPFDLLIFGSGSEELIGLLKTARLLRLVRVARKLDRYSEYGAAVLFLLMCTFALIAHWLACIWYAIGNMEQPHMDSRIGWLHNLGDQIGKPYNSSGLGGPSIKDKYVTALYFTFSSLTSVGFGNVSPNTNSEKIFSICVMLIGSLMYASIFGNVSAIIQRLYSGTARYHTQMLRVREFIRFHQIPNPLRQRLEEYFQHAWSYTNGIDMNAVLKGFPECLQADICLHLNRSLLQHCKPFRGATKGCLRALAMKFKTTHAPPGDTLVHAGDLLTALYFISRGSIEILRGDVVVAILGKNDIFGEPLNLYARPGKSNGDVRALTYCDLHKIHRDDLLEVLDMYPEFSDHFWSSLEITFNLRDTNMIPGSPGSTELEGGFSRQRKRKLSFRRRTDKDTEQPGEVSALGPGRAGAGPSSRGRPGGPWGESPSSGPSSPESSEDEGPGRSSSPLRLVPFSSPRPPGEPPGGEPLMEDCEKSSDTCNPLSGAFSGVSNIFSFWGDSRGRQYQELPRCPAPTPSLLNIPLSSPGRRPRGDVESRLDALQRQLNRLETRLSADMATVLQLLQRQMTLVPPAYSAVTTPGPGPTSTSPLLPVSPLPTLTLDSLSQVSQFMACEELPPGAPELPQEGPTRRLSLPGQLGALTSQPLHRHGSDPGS
Protocol: Human hERG K^+ Channel Affinity Radioligand Binding Assay
The affinity of compounds for the human hERG K^+ channel in transfected HEK-293 cells is evaluated in a radioligand binding assay as described herein. Cell membrane homogenates (about […]) are incubated for 60 min at 22° C. with 3 nM [^3H]dofetilide in the absence or presence of the test compound in a buffer containing 50 mM Tris-HCl (pH 7.4), 10 mM KCl and 1 mM MgCl2. The assay is carried out in a 96-well plate format with a volume of 200 μL, containing a maximum of 1% DMSO from initial solubilization of test compound. Following incubation, the samples are filtered rapidly under vacuum through glass fiber filters (GF/B, Packard) presoaked with 0.3% PEI and rinsed several times with ice-cold 50 mM Tris-HCl, 10 mM KCl and 1 mM MgCl2 using a 96-sample cell harvester (Unifilter, Packard). The filters are dried and then counted for radioactivity in a scintillation counter (Topcount, Packard) using a scintillation cocktail (Microscint 0, Packard).

[4] = Non-Human Primate (NHP) Pharmacokinetics; format: in vivo; conditions: cynomolgus monkey, plasma, IV 0.5 mg/kg, fasted male cynomolgus monkeys; for Vd: steady-state, read-out: Volume of distribution
Protocol: Non-Human Primate (NHP) Pharmacokinetics:
The test compound is administered to fasted male cynomolgus monkeys intravenously (IV) at 0.5 mg/kg (using a dose volume of 1 mL/kg). Serial blood samples are collected at 0.08, 0.25, 0.5, 1, 2, 4, 8, 12, and 24 hours post dose for IV bolus. After treatment with an EDTA […], plasma is obtained by centrifugation and stored at −70° C. until analysis by LC-MS/MS. Test article concentration is determined in plasma. Noncompartmental analysis is used to calculate plasma clearance and steady-state volume of distribution.

[5] = tested on: mice expressing the human GLP-1R; assay: In Vivo Intraperitoneal Glucose Tolerance Test in Human GLP-1R Knock-in Mice; conditions: Mus musculus; read-out: Blood glucose lowering ED50
Protocol: In Vivo Intraperitoneal Glucose Tolerance Test in Human GLP-1R Knock-in Mice
The potency of the exemplified compounds to lower the concentration of blood glucose in vivo is determined using mice expressing the human GLP-1R (NCBI accession number NP_002053) from the mouse Glp-1r genetic locus (Jun, L. S., et al., PLoS One. 2014 9:e93746). Overnight fasted mice are orally administered the test compound solubilized in 10% Kolliphor® (HS15) in Polyetheylene Glycol 400 (PEG400). One hour post-dose, the animals are administered glucose by intraperitoneal injection (2 g/kg), and blood glucose levels are measured intermittingly over the next two hours using glucometers. A dose range of the test compound is delivered, and area under the curve calculations for each dose group are determined and fit to a four-parameter logistic model for calculating in vivo potency as an ED50 with a 95% confidence interval.

[6] = HEK293 cell line with 104 fmol/mg expression density of GLP-1R
[7] = HEK293 cell line with 581 fmol/mg expression density of GLP-1R
[8] = HEK293, read-out: Emax (%) ± SEM (n), HEK293 cell line with 104 fmol/mg expression density of GLP-1R
[9] = HEK293, read-out: Emax (%) ± SEM (n), HEK293 cell line with 581 fmol/mg expression density of GLP-1R

PDE10A1, sequence (Q9Y233 other isoform, or with tags, fused parts or gaps): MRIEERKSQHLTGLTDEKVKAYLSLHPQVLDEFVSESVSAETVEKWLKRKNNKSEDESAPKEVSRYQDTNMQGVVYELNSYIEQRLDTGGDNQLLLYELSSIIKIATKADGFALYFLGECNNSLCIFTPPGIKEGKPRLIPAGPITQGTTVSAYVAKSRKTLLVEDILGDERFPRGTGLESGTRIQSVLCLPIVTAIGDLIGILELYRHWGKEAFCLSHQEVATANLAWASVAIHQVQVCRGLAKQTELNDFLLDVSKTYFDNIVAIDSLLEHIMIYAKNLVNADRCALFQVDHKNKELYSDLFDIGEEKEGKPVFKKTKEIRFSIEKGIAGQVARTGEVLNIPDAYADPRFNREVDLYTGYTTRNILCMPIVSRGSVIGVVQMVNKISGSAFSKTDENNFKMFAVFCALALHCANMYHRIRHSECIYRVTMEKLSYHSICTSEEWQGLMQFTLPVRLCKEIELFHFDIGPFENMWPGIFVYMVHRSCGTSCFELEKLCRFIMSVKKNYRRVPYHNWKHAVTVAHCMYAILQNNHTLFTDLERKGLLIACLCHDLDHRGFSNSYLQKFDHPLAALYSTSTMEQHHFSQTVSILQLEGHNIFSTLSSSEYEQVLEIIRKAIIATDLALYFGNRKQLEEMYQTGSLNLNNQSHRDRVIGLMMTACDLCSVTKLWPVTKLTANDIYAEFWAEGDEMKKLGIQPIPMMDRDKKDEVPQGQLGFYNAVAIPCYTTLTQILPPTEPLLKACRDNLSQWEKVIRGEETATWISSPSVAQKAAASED

Structure (SMILES) | IC50 [1] | EC50 [2, 6] | EC50 [2, 7] | Emax [2, 8] | Emax [2, 9] | clearance [4] | Vd [4] | inhibition at 60 min, 100 µM [3] | ED50 [5]
Cc1cc(Cc2nc3ccc(C(=O)O)cc3n2C[C@@H]2CCO2)ccc1-c1cccc(OCc2ccc(C#N)cc2F)n1 [Example 1, 2-[[4-[6-[(4-Cyano-2-fluoro-phenyl)methoxy]-2-pyridyl]-3-methyl-phenyl]methyl]-3-[[(2S)-oxetan-2-yl]methyl]benzimidazole-5-carboxylic Acid] | > 10 µM | 20 ± 3.25 nM | 9.33 ± 1.36 nM | 71.4 ± 2.26% | 99.5 ± 2.53% | 13 mL/min/kg | 1.2 L/kg | 0% | 0.09 mg/kg
Cc1cc(Cc2nc3ccc(C(=O)O)cc3n2C[C@@H]2CCO2)c(F)cc1-c1cccc(OCc2ccc(C#N)cc2F)n1 [Example 2, 2-[[4-[6-[(4-Cyano-2-fluoro-phenyl)methoxy]-2-pyridyl]-2-fluoro-5-methyl-phenyl]methyl]-3-[[(2S)-oxetan-2-yl]methyl]benzimidazole-5-carboxylic Acid] | 7.43 µM | 3.97 ± 0.61 nM | 1.14 ± 0.315 nM | 79.2 ± 3.2% | 104 ± 4.35% | 11 mL/min/kg | 1.1 L/kg | 54% | 0.07 mg/kg
N#Cc1ccc(COc2cccc(-c3cc(F)c(Cc4nc5ccc(C(=O)O)cc5n4C[C@@H]4CCO4)c(F)c3)n2)c(F)c1 [Example 4, 2-[[4-[6-[(4-Cyano-2-fluoro-phenyl)methoxy]-2-pyridyl]-2,6-difluoro-phenyl]methyl]-3-[(2S)-oxetan-2-ylmethyl]benzimidazole-5-carboxylic Acid] | 5.41 µM | 9.59 ± 2.36 nM | 3.99 ± 0.378 nM | 78.3 ± 5.1% | 99.2 ± 4% | – | – | – | –

Continued, in another order:

IC50 [1] | EC50 [2, 6] | EC50 [2, 7] | Emax [2, 8] | Emax [2, 9] | clearance [4] | Vd [4] | Structure (SMILES) | inhibition at 60 min, 100 µM [3] | ED50 [5]
> 10 µM | – | – | – | – | 6 mL/min/kg | 1.1 L/kg | N#Cc1ccc(COc2cccc(-c3ccc(Cc4nc5ccc(C(=O)O)cc5n4C[C@@H]4CCO4)c(F)c3)n2)c(F)c1 [Example 3, 2-[[4-[6-[(4-Cyano-2-fluoro-phenyl)methoxy]-2-pyridyl]-2-fluoro-phenyl]methyl]-3-[(2S)-oxetan-2-ylmethyl]benzimidazole-5-carboxylic Acid] | 37% | 0.06 mg/kg
– | 23.6 ± 5.43 nM | 6.45 ± 0.934 nM | 76.7 ± 3.88% | 105 ± 2.43% | – | – | Cc1c(-c2cccc(OCc3ccc(C#N)cc3F)n2)ccc(Cc2nc3ccc(C(=O)O)cc3n2C[C@@H]2CCO2)c1F [Example 5, 2-[[4-[6-[(4-Cyano-2-fluoro-phenyl)methoxy]-2-pyridyl]-2-fluoro-3-methyl-phenyl]methyl]-3-[[(2S)-oxetan-2-yl]methyl]benzimidazole-5-carboxylic Acid] | – | –
